# Measured values reported in patent US20170035793A1, “Use of P2X Purinergic Receptor Agonists to Enhance Insulin Secretion In Pancreatic Beta Cells” (priority 2010, published 2017).
# “Also recorded” adds a separate entry of the source.
# What was measured:
# Type in all cases: cell-based
# [1] = test system: human islets; assay: ATP-induced (or α,β meATP-induced) insulin secretion in human islets with antagonists or blockers; settings: ATP 10 μM; for effect on insulin secretion induced by ATP: suramin 100 μM, Cd2+ 100 μM, nifedipine 10 μM, thapsigargin 1 μM
# Text: (§1) Islet Isolation. Islets were isolated as previously described (57). Monkey islets were isolated from cynomolgus monkeys (Macacca fascicularis) >4 years of age at the time of pancreas procurement, as previously described (58). Pig pancreata were procured from the local slaughterhouse. Mice (C57BL/6) and rat (Lewis rat; Harlan) islets were isolated using a rodent-islet isolation technique (59). All animal protocols were approved by the University of Miami Care and Use Committee. Human pancreatic islets were obtained from the Human Islet Cell Processing Facility at the Diabetes Research Institute, University of Miami Miller School of Medicine or from the Islet Cell Resource basic science islet distribution program, Islet Cell Resource Centers (ICRs) Consortium, Division of Clinical Research, National Center for Research Resources, National Institutes of Health. Human islets were dissociated into single cells using enzyme-free cell dissociation buffer (Invitrogen). Islets and islets cells from Q:1 all species were cultured identically (37° C. and 5% CO2) inCMRL Q:2 medium-1066 (Invitrogen), niacinamide (10 mM; Sigma), ITS (BD Biosciences), Zn2SO4 (15 μM, Sigma), GlutaMAX (2 mM; Invitrogen), Hepes (25 mM; Sigma), FBS (10%; Invitrogen), and penicillinstreptomycin (100 IU/mL-100 μg/mL; Invitrogen).
# (§2) Insulin and Glucagon Secretion. Insulin and glucagon secretion were measured as previously described (8, 36). A high-capacity automated perifusion system was developed to dynamically measure hormone secretion from pancreatic islets. A low pulsatility peristaltic pump pushed Hepes-buffered solution (125 mM NaCl, 5.9 mM KCl, 2.56 mM CaCl2, 1 mM MgCl2, 25 mM Hepes, and 0.1% BSA, pH 7.4 at a perifusion rate of 100 μL/min) through a column containing 100 pancreatic islets immobilized in Bio-Gel P-4 Gel (BioRad). Except when otherwise stated, glucose concentration was adjusted to 3 mM for all experiments. Stimuli were applied with the perifusion buffer. The perifusate was collected in an automatic fraction collector designed for a 96-well plate format. The columns containing the islets and the perifusion solutions were kept at 37° C., and the perifusate in the collecting plate was kept at <4° C. Perifusates were collected every 1 min. Hormone release in the perifusate was determined with the human or mouse Endocrine LINCOplex Kit following manufacturer's instructions (Lincoresearch). Human islet preparations varied considerably in their quality. Thus, the magnitudes of the responses to different stimuli were compared with the same recording or using recordings from the same preparation.
# [2] = test system: human islets; assay: Glucose-induced insulin secretion (glucose raised from 3 mM to 11 mM) in perifused human islets; settings: glucose 3 mM to 11 mM; for reduction of glucose-induced insulin release: apyrase 5 U/mL, suramin 50 μM or 100 μM, iso-PPADS 50 μM, oATP 500 μM; for effect on glucose-induced insulin secretion: MRS2159 10 μM, Brilliant Blue G 1 μM, KN-62 1 μM, reactive blue 2 50 μM, MRS2179 10 μM, CGS15943 10 μM, adenosine 100 μM
# Text: as §1, §2
# [3] = test system: human islets; assay: Dynamic insulin secretion from perifused human islets kept at constant glucose; settings: for effect on basal insulin secretion: low glucose (3 mM), ARL67156 50 μM, apyrase 5 U/mL; for insulin secretory response to the agonist at low glucose: 3 mM glucose, ATP 100 μM (or concentration series), ATPγS 50 μM, BzATP 50 μM, α,β-methylene ATP 50 μM, ADP 100 μM, UTP 100 μM, adenosine 100 μM
# Text: as §1, §2
# [4] = test system: human β cells; assay: [Ca2+]i imaging (Fura-2) of glucose-responsive human islet cells; settings: for [Ca2+]i response of β cells to the agonist: human β cells identified by response to high glucose (11 or 16 mM), recorded at 3 mM glucose, BzATP 50 μM; for effect on [Ca2+]i responses induced by ATPγS: iso-PPADS, nifedipine 10 μM
# Text: as §1
# [Ca^2+]i; Imaging. [Ca^2+]i imaging was performed as previously described (8, 36). Dispersed islet cells were immersed in Hepes-buffered solution (125 mMNaCl, 5.9 mMKCl, 2.56 mMCaCl2, 1 mMMgCl2, 25 mMHepes, and 0.1% BSA, pH7.4). Glucose was added to give a final concentration of 3 mM. Islets or dispersed islet cells were incubated in Fura-2 AM (2 μM; 1 h) and placed in a closed small volume imaging chamber (Warner Instruments). Stimuli were applied with the bathing solution. Islets loaded with Fura-2 were excited alternatively at 340 and 380 nm with a monochromator light source (Cairn Research Optoscan Monochromator; Cairn Research Ltd). Images were acquired with a Hamamatsu camera (Hamamatsu) attached to a Zeiss Axiovert 200 microscope (Carl Zeiss). Changes in the 340/380 fluorescence emission ratio over time were analyzed in individual islets and dispersed cells using Kinetic Imaging AQM Advance software (Kinetic Imaging). Peak changes in the fluorescence ratio constituted the response amplitude. Beta cells were distinguished from other endocrine cells by their [Ca^2+]i, responses to high glucose concentrations, and alpha cells were identified by their [Ca^2+]i responses to kainate (glutamate receptor agonist) (8, 36).
# [5] = test system: human alpha cells; assay: [Ca2+]i imaging (Fura-2) of kainate-responsive human islet cells; settings: agonist 50 μM; for fraction of kainate-responsive cells that responded with rapid [Ca2+]i increases: human islet cells responding to kainate (100 μM)
# [6] = human β cells, ATPγS 50 μM, thapsigargin 1 μM
compound,measurement,setting,value
Cc1ccc(C(=O)Nc2ccc(S(=O)(=O)O)c3cc(S(=O)(=O)O)cc(S(=O)(=O)O)c23)cc1NC(=O)c1cccc(NC(=O)Nc2cccc(C(=O)Nc3cc(C(=O)Nc4ccc(S(=O)(=O)O)c5cc(S(=O)(=O)O)cc(S(=O)(=O)O)c45)ccc3C)c2)c1 [suramin],effect on insulin secretion induced by ATP,[1]; iso-PPADS 50 μM,inhibited
same,reduction of glucose-induced insulin release,[2],40%
apyrase,effect on basal insulin secretion,[3],did not reduce basal insulin secretion
same,effect on basal insulin secretion,[3]; listed as Apyrase,did not change basal insulin secretion
same,reduction of glucose-induced insulin release,[2],~15%
Cc1nc(N=Nc2ccc(C(=O)O)cc2)c(COP(=O)(O)O)c(C=O)c1O [MRS2159],effect on glucose-induced insulin secretion,[2],not significantly reduced
Nc1ncnc2c1ncn2[C@@H]1O[C@H](COP(=O)(O)OP(=O)(O)OP(O)(O)=S)[C@@H](O)[C@H]1O [ATPγS],[Ca2+]i response of β cells to the agonist,[4]; ATPγS 50 μM,rapid [Ca^2+]i increases
same,[Ca2+]i response of β cells to the agonist,"[4]; ATPγS 50 μM, listed as ATP S",induced [Ca^2+]i responses
same,[Ca2+]i responses to the agonist in the nominal absence of extracellular Ca2+,"[4]; human β cells, nominal 0 Ca2+ (+1 mM EGTA), ATPγS 50 μM",reduced
same,[Ca2+]i response of alpha cells to the agonist,"[5]; human alpha cells identified by kainate (100 μM), 3 mM glucose",did not respond to ATP S
same,fraction of kainate-responsive cells that responded with rapid [Ca2+]i increases,[5],30%
same,insulin secretory response to the agonist at low glucose,[3],elicited insulin secretory responses; also recorded: elicited strong insulin responses
C/C=C(/C)C(=O)O[C@H]1C(C)=C2[C@H]([C@@H]1OC(=O)CCCCCCC)[C@@](C)(OC(C)=O)C[C@H](OC(=O)CCC)[C@@]1(O)[C@H]2OC(=O)[C@@]1(C)O [thapsigargin],effect on [Ca2+]i responses induced by ATPγS,[4]; [6],not decreased
same,effect on [Ca2+]i responses to ATP,"[4]; human β cells, thapsigargin 1 μM, nifedipine",did not affect [Ca^2+]i responses to ATP
same,effect on insulin secretion induced by ATP,[1]; iso-PPADS 50 μM,had no effect on insulin responses to ATP
same,effect on insulin secretion induced by ATP,"[1]; iso-PPADS 50 μM, listed as Thapsigargin",did not affect insulin responses
"Nc1ncnc2c1ncn2[C@@H](C=O)O[C@@H](C=O)COP(=O)(O)OP(=O)(O)OP(=O)(O)O [oATP, oxidized ATP]",reduction of glucose-induced insulin release,[2],65%
CCOc1ccc(Nc2ccc(/C(=C3C=C/C(=[N+](/CC)Cc4cccc(S(=O)(=O)[O-])c4)C=C/3C)c3ccc(N(CC)Cc4cccc(S(=O)(=O)[O-])c4)cc3C)cc2)cc1.[Na+] [Brilliant Blue G],effect on glucose-induced insulin secretion,[2],not significantly reduced
CNc1ncnc2c1ncn2[C@H]1C[C@H](OP(=O)(O)O)[C@@H](COP(=O)(O)O)O1 [MRS2179],effect on glucose-induced insulin secretion,[2],did not inhibit glucose induced insulin release
O=c1ccn([C@@H]2O[C@H](COP(=O)(O)OP(=O)(O)OP(=O)(O)O)[C@@H](O)[C@H]2O)c(=O)[nH]1 [UTP],insulin secretory response to the agonist at low glucose,[3],did not evoke strong insulin responses; also recorded: increase insulin release
Cc1nc(/N=N/c2cc(S(=O)(=O)O)ccc2S(=O)(=O)O)c(COP(=O)(O)O)c(C=O)c1O [iso-PPADS],block of [Ca2+]i responses to ATP,[4]; human β cells,80%
same,effect on [Ca2+]i responses induced by ATPγS,[4]; [6],reduced [Ca^2+]i responses
same,inhibition at 50 µM,"[1]; iso-PPADS 50 μM, read-out: inhibition of insulin responses to ATP",~95%
same,effect on insulin secretion induced by ATP,[1]; iso-PPADS 50 μM,inhibited
same,reduction of glucose-induced insulin release,[2],30%
2′(3′)-O-(4-Benzoylbenzoyl)ATP [BzATP],[Ca2+]i response of β cells to the agonist,[4]; ATPγS 50 μM,rapid [Ca^2+]i increases; also recorded: elicited repeatable [Ca^2+]i responses
same,fraction of kainate-responsive cells that responded with rapid [Ca2+]i increases,[5],30%
same,insulin secretory response to the agonist at low glucose,[3],elicited insulin secretory responses; also recorded: elicited strong insulin responses
adenosine deaminase,effect of degrading adenosine on the apyrase effect on glucose-stimulated insulin secretion,[2]; ADA 1 U/mL added to apyrase 5 U/mL,did not change the effect of apyrase on glucose-stimulated insulin secretion
"Nc1ncnc2c1ncn2[C@@H]1O[C@H](COP(=O)(O)CP(=O)(O)OP(=O)(O)O)[C@@H](O)[C@H]1O [α,β-methylene ATP]",[Ca2+]i response of β cells to the agonist,[4]; ATPγS 50 μM,elicited repeatable [Ca^2+]i responses
same,insulin responses to the agonist in the nominal absence of extracellular Ca2+,"[1]; nominal 0 Ca2+ (+1 mM EGTA), α,β meATP 100 μM",strongly diminished
same,insulin secretory response to the agonist at low glucose,[3],elicited strong insulin responses
Nc1ncnc2c1ncn2[C@@H]1O[C@H](CO)[C@@H](O)[C@H]1O [adenosine],insulin secretory response to the agonist at low glucose,[3],did not evoke strong insulin responses
same,insulin secretory response to the agonist at low glucose,[3]; listed as Adenosine,minor effect on insulin release
same,effect on glucose-induced insulin secretion,[2],neither the P1 receptor antagonist CGS15943 (10 μM) nor adenosine (100 μM) altered glucose-induced insulin secretion
CCN(CC)c1ncnc2c1ncn2[C@@H]1O[C@H](COP(=O)(O)OP(=O)(O)C(Br)(Br)P(=O)(O)O)[C@@H](O)[C@H]1O [ARL67156],effect on basal insulin secretion,[3],increased basal insulin secretion
same,effect on glucose-induced insulin secretion,[2],did not amplify the β-cell response
CN([C@@H](Cc1ccc(OS(=O)(=O)c2cccc3cnccc23)cc1)C(=O)N1CCN(c2ccccc2)CC1)S(=O)(=O)c1cccc2cnccc12 [KN-62],effect on glucose-induced insulin secretion,[2],not significantly reduced
Nc1c(S(=O)(=O)O)cc(Nc2ccc(Nc3nc(Cl)nc(Nc4cccc(S(=O)(=O)O)c4)n3)c(S(=O)(=O)O)c2)c2c1C(=O)c1ccccc1C2=O [reactive blue 2],effect on glucose-induced insulin secretion,[2],did not inhibit glucose induced insulin release
Nc1ncnc2c1ncn2[C@@H]1O[C@H](COP(=O)(O)OP(=O)(O)O)[C@@H](O)[C@H]1O [ADP],insulin secretory response to the agonist at low glucose,[3],elicited insulin secretory responses; also recorded: increase insulin release
